The values that follow come from patent publication US11154563B2, “Immunoproteasome inhibitors” (Principia Biopharma Inc., priority 2017, dated 2021).

Experiment [1] addresses immunoproteasome LMP7/B5i subunit (Homo sapiens, UniProt P20618+P28062). Briefly: Caliper-based proteasome enzymatic activity assay, LMP7. Type of experiment: biochemical. Conditions: human recombinant immunoproteasome 0.3 nM, FAM-peptide substrate 1 μM, 3 h at rt. In a few lines: (§1)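 Recombinant human immunoproteasome or constitutive proteasome (0.3 nM) with 1 μM FAM-peptide in 20 mM Hepes pH 7.4, 0.015% SDS, 0.01% BSA; LMP7/β5c ran 3 h at rt and were stopped with 5 uM carfilzomib, LMP2 ran 2 h and was stopped with 6.7 uM ixazomib. Cleaved product quantified by microfluidic separation; IC50 from percent inhibition.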

For experiment [2], the target named is constitutive proteasome β5c unit (Homo sapiens, UniProt P20618+P28074). Briefly: Caliper-based proteasome enzymatic activity assay, β5c. Type of experiment: biochemical. Conditions: human recombinant constitutive proteasome 0.3 nM, FAM-peptide substrate 1 μM, 3 h at rt; read-out: β5c subunit IC50. In a few lines:
as §1

Experiment [3] has as its target T1, PBMC/LMP7 (Homo sapiens, UniProt P28062).
T1 construct: endogenous in cells; host or cells: primary human PBMC
Briefly: Inhibition of proteasome activity in cells (Proteasome-Glo), PBMC. The settings on record: primary human PBMC, 2 h incubation, Suc-LLVY-aminoluciferin substrate. Type of experiment: cell-based. The method, then: The cell-based effects of a compound described herein on the immunoproteasome are determined by measuring inhibition of proteasome activity in cells using the Proteasome-Glo™ Cell-Based Reagent (Promega, Madison Wis.). The Proteasome-Glo™ assay contains a specific luminogenic proteasome substrate in a buffer optimized for cell permeabilization, proteasome activity, and luciferase activity. For the chymotrypsin-like activity (LMP7 and […]), the peptide substrate is Suc-LLVY-aminoluciferin (Succinyl-leucine-leucine-valine-tyrosine-aminoluciferin). Cleavage of the substrate by proteasome results in luminescent signal which is proportional to the proteasome activity. The cell line THP-1 (a monocytic leukemia cell line enriched in immunoproteasome), the cell line HT-29 (a colorectal adenocarcinoma cell line enriched in constitutive proteasome), and primary human peripheral blood mononuclear cells (PBMC) are used to assess proteasome activity. Cells are seeded in a 96-well plate at 10,000 cells per well in RPMI 1640 high glucose medium with 10% fetal bovine serum (FBS). Compound dilutions are added to cells starting at a concentration of 5 uM and decreasing in tripling dilutions. The final DMSO concentration is 1%. The concentration range is adjusted as needed for compounds of different potencies. The cells treated with compounds are incubated for 2 h at 37° C. in 5% CO2. At the end of the 2 h incubation period, cells are transferred to white 384 well assay plates. 20 uL of Proteasome-Glo™ Reagent is added to each well and incubated for 10 min at rt. The plate is read in the Analyst HT instrument (Molecular Devices, Sunnyvale, Calif.) using luminescence mode. The percent inhibition of activity is plotted as a function of log compound concentration. The IC50 is then calculated for each compound using Prism software from GraphPad Software Inc. (San Diego, Calif.).

For experiment [4], the target named is immunoproteasome LPM2/β1i subunit (Homo sapiens, UniProt P28065+P40306). The experiment is described as follows: Caliper-based proteasome enzymatic activity assay, LMP2. The class given is biochemical. The settings on record: human recombinant immunoproteasome 0.3 nM, FAM-peptide substrate 1 μM, 2 h at rt. The procedure: A Caliper-based proteasome assay (Caliper Life Sciences, Hopkinton, Mass.) was used to measure inhibition of the immunoproteasome LMP7/B5i subunit, the immunoproteasome LPM2/β1i subunit, and the constitutive proteasome β5c unit for a compound of Formula (I). For LMP7 and β5c, serial dilutions of test compounds were incubated with either human recombinant immunoprotcasome or constitutive proteasome (0.3 nM enzyme) and a carboxyfluorescein (FAM)-labeled peptide substrate FAM-TYETFKSIMKKSPF-NH2 (1 μM) at it for 3 h. The reaction was then terminated with a buffer containing the known proteasome inhibitor carfilzomib at a concentration of 5 uM. For LMP2, serial dilutions of test compounds were incubated with human recombinant immunoproteasome proteasome (0.3 nM enzyme) and a carboxyfluorescein (FAM)-labeled peptide substrate FAM-[…]-NH2 (1 μM) at rt for 2 h. The reaction was then terminated with a buffer containing the known proteasome inhibitor ixazomib at a concentration of 6.7 uM. The reaction buffer was 20 mM Hepes pH 7.4, 0.01% bovine serum albumin, 0.015% SDS, 0.5 mM EDTA, 1%0/DMSO. The peptide cleavage reaction product was quantified on a Caliper LabChip 3000. Percent inhibition was calculated for each compound dilution and the concentration that produced 50% inhibition was calculated. This value is presented as the IC50.

As usually defined, the IC50 is the point on the concentration scale where inhibition reaches its midpoint. For `CC(C)C=C(C#N)C(=O)N1CCC[C@@H]1COCCC(=O)N[C@@H](Cc1ccccc1)B(O)O` [Example 1, ((R)-1-(3-(((R)-1-(2-cyano-4-methylpent-2-enoyl)pyrrolidin-2-yl)methoxy)propanamido)-2-phenylethyl)boronic acid], the IC50 in experiment [1] is 79 nM; in experiment [2], 1460 nM; in experiment [3], 190 nM.

As to `CC(C)(C)C=C(C#N)C(=O)N1C[C@H]2C[C@H]2[C@@H]1COC(=O)N[C@@H](Cc1ccccc1)B(O)O` [Example 37, ((R)-1-(((((1R,2R,5S)-3-(2-cyano-4,4-dimethylpent-2-enoyl)-3-azabicyclo[3.1.0]hexan-2-yl)methoxy)carbonyl)amino)-2-phenylethyl)boronic acid], the values for the IC50 in experiment [4], in experiment [1] and in experiment [2] were more than 5000 nM, 4 nM and 1960 nM, respectively.

Take `CC(C)(C)C=C(C#N)C(=O)N1C[C@@H]2C[C@@H]2[C@H]1COC(=O)N[C@@H](Cc1ccccc1)B(O)O` [Example 38]: the results for the IC50 in experiment [4], in experiment [1] and in experiment [2] were more than 5000 nM, 7 nM and more than 5000 nM, respectively.

Take `CC(C)(C)C=C(C#N)C(=O)N1CCC[C@@H]1COC(=O)N[C@@H](Cc1coc2ccccc12)B(O)O` [Example 39, ((R)-2-(benzofuran-3-yl)-1-(((((R)-1-(2-cyano-4,4-dimethylpent-2-enoyl)pyrrolidin-2-yl)methoxy)carbonyl)amino)ethyl)boronic acid]: the IC50 is more than 5000 nM in experiment [4], 1.2 nM in experiment [1] and 187 nM in experiment [2].

`CC(C)(C=C(C#N)C(=O)N1CCC[C@@H]1COC(=O)N[C@@H](Cc1coc2ccccc12)B(O)O)N1CCOCC1` [Example 40, ((R)-2-(benzofuran-3-yl)-1-(((((R)-(2-cyano-4-methyl-4-morpholinopent-2-enoyl)pyrrolidin-2-yl)methoxy)carbonyl)amino)ethyl)boronic acid]: the IC50 in experiment [4] was more than 5000 nM; in experiment [1], 1.3 nM; in experiment [2] it was 228 nM.

With `Cc1ccc(C[C@H](NC(=O)OC[C@H]2CCCCN2C(=O)C(C#N)=CC(C)(C)N2CCC(F)(F)C2)B(O)O)cc1` [Example 41, ((R)-1-(((((R)-1-(2-cyano-4-(3,3-difluoropyrrolidin-1-yl)-4-methylpent-2-enoyl)piperidin-2-yl)methoxy)carbonyl)amino)-2-(p-tolyl)ethyl)boronic acid], the figures for the IC50 in experiment [4], in experiment [1] and in experiment [2] were more than 5000 nM, 1.6 nM and 518 nM, respectively.

On to `CC1(C=C(C#N)C(=O)N2CCCC[C@@H]2COC(=O)N[C@@H](Cc2coc3ccccc23)B(O)O)CCOCC1` [Example 59, ((R)-2-(benzofuran-3-yl)-1-(((((R)-1-(2-cyano-3-(4-methyltetrahydro-2H-pyran-4-yl)acryloyl)piperidin-2-yl)methoxy)carbonyl)amino)ethyl)boronic acid], for which the results for the IC50 in experiment [4], in experiment [1] and in experiment [2] were more than 5000 nM, 2.8 nM and 372 nM, respectively.

For the compound `CC(C)(C=C(C#N)C(=O)N1C[C@@H]2C[C@@H]2[C@@H]1COC(=O)N[C@@H](Cc1ccccc1)B(O)O)N1CCOCC1` [Example 67, ((R)-1-(((((1S,2R,5R)-3-(2-cyano-4-methyl-4-morpholinopent-2-enoyl)-3-azabicyclo[3.1.0]hexan-2-yl)methoxy)carbonyl)amino)-2-phenylethyl)boronic acid], the half-inhibitory concentration (IC50) in experiment [4] is more than 5000 nM; in experiment [1] it was 1 nM; in experiment [2], 2310 nM.

Take `CC(C)(C=C(C#N)C(=O)N1C[C@@H]2C[C@@H]2[C@@H]1COC(=O)N[C@@H](Cc1ccccc1)B(O)O)N1CCC(F)(F)C1` [Example 74, ((R)-1-(((((1S,2R,5R)-3-(2-cyano-4-(3,3-difluoropyrrolidin-1-yl)-4-methylpent-2-enoyl)-3-azabicyclo[3.1.0]hexan-2-yl)methoxy)carbonyl)amino)-2-phenylethyl)boronic acid]: the IC50 in experiment [4] came to 3360 nM; in experiment [1] it was 1.2 nM; in experiment [2], 925 nM.

Turning to `CC(C)(C=C(C#N)C(=O)N1CCCC[C@@H]1COC(=O)N[C@@H](Cc1ccc(F)cc1)B(O)O)N1CCC(F)(F)C1` [Example 82, ((R)-1-(((((R)-1-(2-cyano-4-(3,3-difluoropyrrolidin-1-yl)-4-methylpent-2-enoyl)piperidin-2-yl)methoxy)carbonyl)amino)-2-(4-fluorophenyl)ethyl)boronic acid], the values for the IC50 in experiment [4], in experiment [1] and in experiment [2] were more than 5000 nM, 1.4 nM and 2150 nM, respectively.

With `CC(C)(C=C(C#N)C(=O)N1CCCC[C@@H]1COC(=O)N[C@@H](Cc1ccc(C(F)(F)F)cc1)B(O)O)N1CCC(F)(F)C1` [Example 83, ((R)-1-(((((R)-1-(2-cyano-4-(3,3-difluoropyrrolidin-1-yl)-4-methylpent-2-enoyl)piperidin-2-yl)methoxy)carbonyl)amino)-2-(4-(trifluoromethyl)phenyl)ethyl)boronic acid], the IC50 in experiment [4] is more than 5000 nM; in experiment [1], 4.4 nM; in experiment [2] it was 1220 nM.

For the compound `CC(C)(C=C(C#N)C(=O)N1CCC[C@]1(C)COC(=O)N[C@@H](Cc1ccccc1)B(O)O)N1CCC(F)(F)C1` [Example 85, ((R)-1-(((((R)-1-(2-cyano-4-(3,3-difluoropyrrolidin-1-yl)-4-methylpent-2-enoyl)-2-methylpyrrolidin-2-yl)methoxy)carbonyl)amino)-2-phenylethyl)boronic acid], the IC50 was more than 5000 nM in experiment [4], 2 nM in experiment [1] and 4890 nM in experiment [2].

`Cc1ccc(C[C@H](NC(=O)OC[C@H]2COCCN2C(=O)C(C#N)=CC(C)(C)N2CCC(F)(F)C2)B(O)O)cc1` [Example 86, ((R)-1-(((((R)-4-(2-cyano-4-(3,3-difluorpyrrolidin-1-yl)-4-methylpent-2-enoyl)morpholin-3-yl)methoxy)carbonyl)amino)-2-(p-tolyl)ethyl)boronic acid]: the values for the IC50 in experiment [4], in experiment [1] and in experiment [2] were more than 5000 nM, 2.7 nM and 566 nM, respectively.

In the case of `CC(C)(C)/C=C(\C#N)C(=O)N1C[C@H](F)C[C@@H]1COC(=O)N[C@@H](Cc1ccccc1)B(O)O` [Example 90, ((R)-1-(((((2R,4R)-1-((E)-2-cyano-4,4-dimethylpent-2-enoyl)-4-fluoropyrrolidin-2-yl)methoxy)carbonyl)amino)-2-phenylethyl)boronic acid], the IC50 in experiment [4] amounted to 4500 nM; in experiment [1], 1 nM; in experiment [2], 1960 nM.

`CC(C)(C)/C=C(\C#N)C(=O)N1C[C@@H](F)C[C@@H]1COC(=O)N[C@@H](Cc1ccccc1)B(O)O` [Example 102, ((R)-1-(((((2R,4S)-1-((E)-2-cyano-4,4-dimethylpent-2-enoyl)-4-fluoropyrrolidin-2-yl)methoxy)carbonyl)amino)-2-phenylethyl)boronic acid]: the IC50 in experiment [4] worked out at 4490 nM; in experiment [1], 0.7 nM; in experiment [2], 1130 nM.

As for `CC(C)C[C@H](NC(=O)OC[C@H]1CCCCN1C(=O)C(C#N)=CC(C)(C)N1CCC(F)(F)C1)B(O)O` [Example 105, ((R)-1-(((((R)-1-(2-cyano-4-(3,3-difluoropyrrolidin-1-yl)-4-methylpent-2-enoyl)piperidin-2-yl)methoxy)carbonyl)amino)-3-methylbutyl)boronic acid], the IC50 in experiment [4] was found to be 2160 nM; in experiment [1], 2.7 nM; in experiment [2], 1450 nM.
